# Values of other authors in patent US20140023701A1, “Method and Composition for Ameliorating the Effects tor a Subject Exposed to Radiation or Other Sources of Oxidative Stress” (priority 2011, published 2014).
# Like-named read-outs stand apart in the source and are kept apart here.
# Columns and labels:
# Human [1] = system: Human
# Human [2] = system: Human; remark: listed apart in the source
# [3] = tolerable upper intake level, daily intake
# [4] = no observed adverse event level, most sensitive subgroup
Molecule,Human UL (19-70 yo group) (Human [1]; [3]),Human NOAEL (Human [2]; human),Human NOAEL (Human [2]; [4]),Human UL (19-70 yo group) (Human [1])
"O=C(O)c1cccnc1 [Niacin, inositol hexanicotinate]",35 mg,,,
Vitamin E,1490 IU,1200 IU,,
"C=C1CC[C@H](O)C/C1=C/C=C1\CCC[C@]2(C)[C@@H]([C@H](C)CCCC(C)C)CC[C@@H]12 [Vitamin D, cholecalciferol]",,,800 IU,
cyanocobalamin [Vitamin B12],,,3 mg,
[Mg] [Magnesium],350 mg,,700 mg,
Zinc,,,30 mg,40 mg
[Ca] [Calcium],,,1500 mg,2500 mg
"Nc1nc2ncc(CNc3ccc(C(=O)N[C@@H](CCC(=O)O)C(=O)O)cc3)nc2c(=O)[nH]1 [Folate, folic acid]",,,1 mg,
"O=C1O[C@H]([C@@H](O)CO)C(O)=C1O [Vitamin C, ascorbic acid]",,,>1000 mg,
Copper,,,9 mg,10 mg
"Cc1ncc(CO)c(CO)c1O.Cl [Vitamin B6, pyridoxine hydrochloride]",,200 mg,,100 mg
"CC(C)(CO)[C@@H](O)C(=O)NCCC(=O)O [Pantothenic acid, d-calcium pantothenate]",,,1000 mg,
[Mn+2] [Manganese],,,10 mg,11 mg
O=C(O)CCCC[C@@H]1SC[C@@H]2NC(=O)N[C@@H]21 [Biotin],,,2.5 mg,
Vitamin A,,"10,000 IU",,"10,000 U"
chromium polynicotinate,,,1 mg,
"CC1=C(C/C=C(\C)CCC[C@H](C)CCC[C@H](C)CCCC(C)C)C(=O)c2ccccc2C1=O [Vitamin K, phytonadione]",,0.03 mg,,
[Mo] [Molybdenum],2 mg,,0.35 mg,
